Laboratory results taken from PubChem BioAssay AID2060490 (Molecular Pharmacology Branch, DTP, NCI, 2025).

System: 885512-296-R-J2-PDC complex spheroid viability
Assay: Anticancer human tumor 885512-296-R-J2-PDC patient-derived breast carcinoma cell line growth inhibition [GQUAD]
Conditions: for IC50: curve of first compound; for viability, T/C: stronger effect = lower value
Procedure, shortened: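 Viability of tumor cells grown as complex spheroids with endothelial and stromal cells, exposed to drug combinations. Top concentration at or near clinical Cmax (else 10 microM), diluted in half-log increments.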

[1] = second compound 0.0316 µM, first compound 0.0316 µM
[2] = second compound 0.0316 µM, first compound 0.1 µM
[3] = second compound 0.0316 µM, first compound 0.316 µM
[4] = second compound 0.0316 µM, first compound 1 µM
[5] = second compound 0.0316 µM, first compound 3.16 µM
[6] = second compound 0.0316 µM, first compound 10 µM
[7] = second compound 0.1 µM, first compound 0.0316 µM
[8] = second compound 0.1 µM, first compound 0.1 µM
[9] = second compound 0.1 µM, first compound 0.316 µM
[10] = second compound 0.1 µM, first compound 1 µM
[11] = second compound 0.1 µM, first compound 3.16 µM
[12] = second compound 0.1 µM, first compound 10 µM
[13] = second compound 0.316 µM, first compound 0.0316 µM
[14] = second compound 0.316 µM, first compound 0.1 µM
[15] = second compound 0.316 µM, first compound 0.316 µM
[16] = second compound 0.316 µM, first compound 1 µM
[17] = second compound 0.316 µM, first compound 3.16 µM
[18] = second compound 0.316 µM, first compound 10 µM
[19] = second compound 1 µM, first compound 0.0316 µM
[20] = second compound 1 µM, first compound 0.1 µM
[21] = second compound 1 µM, first compound 0.316 µM
[22] = second compound 1 µM, first compound 1 µM
[23] = second compound 1 µM, first compound 3.16 µM
[24] = second compound 1 µM, first compound 10 µM
[25] = second compound 3.16 µM, first compound 0.0316 µM
[26] = second compound 3.16 µM, first compound 0.1 µM
[27] = second compound 3.16 µM, first compound 0.316 µM
[28] = second compound 3.16 µM, first compound 1 µM
[29] = second compound 3.16 µM, first compound 3.16 µM
[30] = second compound 3.16 µM, first compound 10 µM
[31] = second compound 10 µM, first compound 0.0316 µM
[32] = second compound 10 µM, first compound 0.1 µM
[33] = second compound 10 µM, first compound 0.316 µM
[34] = second compound 10 µM, first compound 1 µM
[35] = second compound 10 µM, first compound 3.16 µM
[36] = second compound 10 µM, first compound 10 µM
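Note: spheroids exposed to the compounds for one week.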
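Throughout, for viability, T/C: percent of tumor spheroid viability relative to DMSO vehicle control wells.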

SMILES: C#Cc1c(F)ccc2cc(O)cc(-c3ncc4c(N5CC6CCC(C5)N6)nc(OCC56CCCN5CC(F)C6)nc4c3F)c12 (stereo unspecified) + CN(C)c1ccc(Nc2c3ccc(NC(=O)CCN4CCCC4)cc3nc3cc(NC(=O)CCN4CCCC4)ccc23)cc1
- IC50 (second compound 0.0316 µM): > 10 µM
- IC50 (second compound 0.1 µM): > 10 µM
- IC50 (second compound 0.316 µM): > 10 µM
- IC50 (second compound 1 µM): > 10 µM
- IC50 (second compound 3.16 µM): 7.98 µM
- IC50 (second compound 10 µM): < 0.0316 µM
- viability, T/C [1]: 108%
- viability, T/C [2]: 95.7%
- viability, T/C [3]: 105%
- viability, T/C [4]: 96.8%
- viability, T/C [5]: 106%
- viability, T/C [6]: 87.6%
- viability, T/C [7]: 110%
- viability, T/C [8]: 86.5%
- viability, T/C [9]: 99.8%
- viability, T/C [10]: 98.4%
- viability, T/C [11]: 89%
- viability, T/C [12]: 85.4%
- viability, T/C [13]: 105%
- viability, T/C [14]: 99.3%
- viability, T/C [15]: 96.6%
- viability, T/C [16]: 89.2%
- viability, T/C [17]: 91.4%
- viability, T/C [18]: 87.5%
- viability, T/C [19]: 88.9%
- viability, T/C [20]: 97.7%
- viability, T/C [21]: 99%
- viability, T/C [22]: 102%
- viability, T/C [23]: 94.5%
- viability, T/C [24]: 104%
- viability, T/C [25]: 95.3%
- viability, T/C [26]: 106%
- viability, T/C [27]: 97.2%
- viability, T/C [28]: 89.4%
- viability, T/C [29]: 86.1%
- viability, T/C [30]: 41.2%
- viability, T/C [31]: 21.5%
- viability, T/C [32]: 15.8%
- viability, T/C [33]: 18.9%
- viability, T/C [34]: 13.7%
- viability, T/C [35]: 13.9%
- viability, T/C [36]: 1.6%

SMILES: CC(C)(O)C1CCC(Nc2ccc3ncc(-c4cccc(C(F)(F)F)c4)n3n2)CC1 (stereo unspecified) + CN(C)c1ccc(Nc2c3ccc(NC(=O)CCN4CCCC4)cc3nc3cc(NC(=O)CCN4CCCC4)ccc23)cc1
- IC50 (second compound 0.0316 µM): 1.72 µM
- IC50 (second compound 0.1 µM): 1.51 µM
- IC50 (second compound 0.316 µM): 1.56 µM
- IC50 (second compound 1 µM): 1.55 µM
- IC50 (second compound 3.16 µM): 1.03 µM
- IC50 (second compound 10 µM): < 0.0316 µM
- viability, T/C [1]: 111%
- viability, T/C [2]: 99.6%
- viability, T/C [3]: 105%
- viability, T/C [4]: 78.7%
- viability, T/C [5]: 11.9%
- viability, T/C [6]: 23.8%
- viability, T/C [7]: 99.6%
- viability, T/C [8]: 95%
- viability, T/C [9]: 97.9%
- viability, T/C [10]: 68.4%
- viability, T/C [11]: 15.2%
- viability, T/C [12]: 18.6%
- viability, T/C [13]: 106%
- viability, T/C [14]: 98.6%
- viability, T/C [15]: 86.3%
- viability, T/C [16]: 72.2%
- viability, T/C [17]: 9.35%
- viability, T/C [18]: 19.9%
- viability, T/C [19]: 92.7%
- viability, T/C [20]: 92.4%
- viability, T/C [21]: 86.3%
- viability, T/C [22]: 72.5%
- viability, T/C [23]: 9.81%
- viability, T/C [24]: 16.3%
- viability, T/C [25]: 102%
- viability, T/C [26]: 87.9%
- viability, T/C [27]: 80.5%
- viability, T/C [28]: 54.9%
- viability, T/C [29]: 4.35%
- viability, T/C [30]: 4.39%
- viability, T/C [31]: 16.9%
- viability, T/C [32]: 12.6%
- viability, T/C [33]: 16%
- viability, T/C [34]: 8.44%
- viability, T/C [35]: 0.72%
- viability, T/C [36]: 0.22%

SMILES: CCCS(=O)(=O)Nc1ccc(F)c(C(=O)c2c[nH]c3ncc(-c4ccc(Cl)cc4)cc23)c1F + CN(C)c1ccc(Nc2c3ccc(NC(=O)CCN4CCCC4)cc3nc3cc(NC(=O)CCN4CCCC4)ccc23)cc1
- IC50 (second compound 0.0316 µM): 8.18 µM
- IC50 (second compound 0.1 µM): 7.89 µM
- IC50 (second compound 0.316 µM): 8.45 µM
- IC50 (second compound 1 µM): 6.7 µM
- IC50 (second compound 3.16 µM): 3.75 µM
- IC50 (second compound 10 µM): < 0.0316 µM
- viability, T/C [1]: 105%
- viability, T/C [2]: 90%
- viability, T/C [3]: 109%
- viability, T/C [4]: 104%
- viability, T/C [5]: 106%
- viability, T/C [6]: 38.9%
- viability, T/C [7]: 101%
- viability, T/C [8]: 119%
- viability, T/C [9]: 124%
- viability, T/C [10]: 117%
- viability, T/C [11]: 89%
- viability, T/C [12]: 39.8%
- viability, T/C [13]: 118%
- viability, T/C [14]: 102%
- viability, T/C [15]: 111%
- viability, T/C [16]: 104%
- viability, T/C [17]: 104%
- viability, T/C [18]: 40.7%
- viability, T/C [19]: 95%
- viability, T/C [20]: 102%
- viability, T/C [21]: 103%
- viability, T/C [22]: 94.1%
- viability, T/C [23]: 119%
- viability, T/C [24]: 21.9%
- viability, T/C [25]: 117%
- viability, T/C [26]: 104%
- viability, T/C [27]: 126%
- viability, T/C [28]: 111%
- viability, T/C [29]: 57.6%
- viability, T/C [30]: 6.03%
- viability, T/C [31]: 17.6%
- viability, T/C [32]: 16.4%
- viability, T/C [33]: 15.7%
- viability, T/C [34]: 14.2%
- viability, T/C [35]: 8.35%
- viability, T/C [36]: 1.3%
